Source: PubChem BioAssay (NCI)
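The compound was tested at five concentrations on cells cultured in 96-well plates, with a 48-hour exposure period. Definition used: TGI = concentration required for complete inhibition of growth.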

Legend:
Test in all cases: NCI-60 cell line screen, 48 h
KM12 colon = test system: KM12 colon
HT29 colon = test system: HT29 colon
OVCAR-4 ovarian = test system: OVCAR-4 ovarian
HOP-62 NSCLC = test system: HOP-62 NSCLC
SK-OV-3 ovarian = test system: SK-OV-3 ovarian
UACC-257 melanoma = test system: UACC-257 melanoma
SNB-75 CNS = test system: SNB-75 CNS
MOLT-4 leukemia = test system: MOLT-4 leukemia
DMS 114 small cell lung = test system: DMS 114 small cell lung
ACHN renal = test system: ACHN renal
IGROV1 ovarian = test system: IGROV1 ovarian
SNB-78 CNS = test system: SNB-78 CNS
HOP-18 NSCLC = test system: HOP-18 NSCLC
OVCAR-8 ovarian = test system: OVCAR-8 ovarian
K-562 leukemia = test system: K-562 leukemia
U251 CNS = test system: U251 CNS
HCT-15 colon = test system: HCT-15 colon
HCC-2998 colon = test system: HCC-2998 colon
HL-60(TB) leukemia = test system: HL-60(TB) leukemia
NCI-H522 lung = test system: NCI-H522 lung
SW-620 colon = test system: SW-620 colon
RXF 393 renal = test system: RXF 393 renal
A498 renal = test system: A498 renal
HCT-116 colon = test system: HCT-116 colon
HOP-92 NSCLC = test system: HOP-92 NSCLC
KM20L2 colon = test system: KM20L2 colon
SF-295 CNS = test system: SF-295 CNS
LOX IMVI melanoma = test system: LOX IMVI melanoma
OVCAR-3 ovarian = test system: OVCAR-3 ovarian
DLD-1 colon = test system: DLD-1 colon
A549 NSCLC = test system: A549 NSCLC
SF-268 CNS = test system: SF-268 CNS
CCRF-CEM leukemia = test system: CCRF-CEM leukemia
M14 melanoma = test system: M14 melanoma
NCI-H226 lung = test system: NCI-H226 lung
DMS 273 small cell lung = test system: DMS 273 small cell lung
CAKI-1 renal = test system: CAKI-1 renal
M19-MEL melanoma = test system: M19-MEL melanoma
SK-MEL-28 melanoma = test system: SK-MEL-28 melanoma
SNB-19 CNS = test system: SNB-19 CNS
MALME-3M melanoma = test system: MALME-3M melanoma
EKVX NSCLC = test system: EKVX NSCLC
NCI-H460 lung = test system: NCI-H460 lung
786-0 renal = test system: 786-0 renal
NCI-H23 lung = test system: NCI-H23 lung
LXFL 529 NSCLC = test system: LXFL 529 NSCLC
RPMI-8226 leukemia = test system: RPMI-8226 leukemia
SF-539 CNS = test system: SF-539 CNS
COLO 205 colon = test system: COLO 205 colon
TK-10 renal = test system: TK-10 renal
UACC-62 melanoma = test system: UACC-62 melanoma
SN12C renal = test system: SN12C renal
SK-MEL-5 melanoma = test system: SK-MEL-5 melanoma
SR leukemia = test system: SR leukemia
OVCAR-5 ovarian = test system: OVCAR-5 ovarian
UO-31 renal = test system: UO-31 renal
SK-MEL-2 melanoma = test system: SK-MEL-2 melanoma
T-47D breast = test system: T-47D breast
HS 578T breast = test system: HS 578T breast
MDA-MB-231 breast = test system: MDA-MB-231 breast
DU-145 prostate = test system: DU-145 prostate
MDA-N = test system: MDA-N
MCF7 breast = test system: MCF7 breast
PC-3 prostate = test system: PC-3 prostate
NCI/ADR-RES ovarian = test system: NCI/ADR-RES ovarian
MDA-MB-435 = test system: MDA-MB-435
BT-549 breast = test system: BT-549 breast

COC(=O)C1Cc2c([nH]c3ccccc23)C=N1 (configuration not stated)
TGI (KM12 colon): > 100 µM | TGI (HT29 colon): > 100 µM | TGI (OVCAR-4 ovarian): > 100 µM | TGI (HOP-62 NSCLC): > 100 µM | TGI (SK-OV-3 ovarian): > 100 µM | TGI (UACC-257 melanoma): > 100 µM | TGI (SNB-75 CNS): > 100 µM | TGI (MOLT-4 leukemia): > 100 µM | TGI (DMS 114 small cell lung): > 100 µM | TGI (ACHN renal): > 100 µM | TGI (IGROV1 ovarian): > 100 µM | TGI (SNB-78 CNS): > 100 µM | TGI (HOP-18 NSCLC): > 100 µM | TGI (OVCAR-8 ovarian): > 100 µM | TGI (K-562 leukemia): > 100 µM | TGI (U251 CNS): > 100 µM | TGI (HCT-15 colon): > 100 µM | TGI (HCC-2998 colon): > 100 µM | TGI (HL-60(TB) leukemia): > 100 µM | TGI (NCI-H522 lung): > 100 µM | TGI (SW-620 colon): > 100 µM | TGI (RXF 393 renal): > 100 µM | TGI (A498 renal): > 100 µM | TGI (HCT-116 colon): > 100 µM | TGI (HOP-92 NSCLC): > 100 µM | TGI (KM20L2 colon): > 100 µM | TGI (SF-295 CNS): > 100 µM | TGI (LOX IMVI melanoma): > 100 µM | TGI (OVCAR-3 ovarian): > 100 µM | TGI (DLD-1 colon): > 100 µM | TGI (A549 NSCLC): > 100 µM | TGI (SF-268 CNS): > 100 µM | TGI (CCRF-CEM leukemia): > 100 µM | TGI (M14 melanoma): > 100 µM | TGI (NCI-H226 lung): > 100 µM | TGI (DMS 273 small cell lung): > 100 µM | TGI (CAKI-1 renal): > 100 µM | TGI (M19-MEL melanoma): > 100 µM | TGI (SK-MEL-28 melanoma): > 100 µM | TGI (SNB-19 CNS): > 100 µM | TGI (MALME-3M melanoma): > 100 µM | TGI (EKVX NSCLC): > 100 µM | TGI (NCI-H460 lung): > 100 µM | TGI (786-0 renal): > 100 µM | TGI (NCI-H23 lung): > 100 µM | TGI (LXFL 529 NSCLC): > 100 µM | TGI (RPMI-8226 leukemia): > 100 µM | TGI (SF-539 CNS): > 100 µM | TGI (COLO 205 colon): > 100 µM | TGI (TK-10 renal): > 100 µM | TGI (UACC-62 melanoma): > 100 µM | TGI (SN12C renal): > 100 µM | TGI (SK-MEL-5 melanoma): > 100 µM | TGI (SR leukemia): > 100 µM | TGI (OVCAR-5 ovarian): > 100 µM | TGI (UO-31 renal): > 100 µM

Cc1cccc(C)c1NC(=O)C(=O)C1C(=O)N(c2ccccc2)N=C1N (configuration not stated)
TGI (KM12 colon): > 100 µM | TGI (HT29 colon): > 100 µM | TGI (OVCAR-4 ovarian): > 100 µM | TGI (HOP-62 NSCLC): > 100 µM | TGI (SK-OV-3 ovarian): > 100 µM | TGI (UACC-257 melanoma): > 100 µM | TGI (SNB-75 CNS): > 100 µM | TGI (MOLT-4 leukemia): > 100 µM | TGI (DMS 114 small cell lung): > 100 µM | TGI (ACHN renal): > 100 µM | TGI (IGROV1 ovarian): > 100 µM | TGI (SNB-78 CNS): > 100 µM | TGI (HOP-18 NSCLC): > 100 µM | TGI (OVCAR-8 ovarian): > 100 µM | TGI (K-562 leukemia): > 100 µM | TGI (U251 CNS): > 100 µM | TGI (HCT-15 colon): > 100 µM | TGI (HCC-2998 colon): > 100 µM | TGI (HL-60(TB) leukemia): > 100 µM | TGI (NCI-H522 lung): > 100 µM | TGI (SW-620 colon): > 100 µM | TGI (RXF 393 renal): > 100 µM | TGI (A498 renal): > 100 µM | TGI (HCT-116 colon): > 100 µM | TGI (HOP-92 NSCLC): > 100 µM | TGI (KM20L2 colon): > 100 µM | TGI (SK-MEL-2 melanoma): > 100 µM | TGI (SF-295 CNS): > 100 µM | TGI (LOX IMVI melanoma): > 100 µM | TGI (OVCAR-3 ovarian): > 100 µM | TGI (DLD-1 colon): > 100 µM | TGI (A549 NSCLC): > 100 µM | TGI (SF-268 CNS): > 100 µM | TGI (CCRF-CEM leukemia): > 100 µM | TGI (M14 melanoma): > 100 µM | TGI (NCI-H226 lung): > 100 µM | TGI (DMS 273 small cell lung): > 100 µM | TGI (CAKI-1 renal): > 100 µM | TGI (M19-MEL melanoma): > 100 µM | TGI (SK-MEL-28 melanoma): > 100 µM | TGI (SNB-19 CNS): > 100 µM | TGI (MALME-3M melanoma): > 100 µM | TGI (EKVX NSCLC): > 100 µM | TGI (NCI-H460 lung): > 100 µM | TGI (786-0 renal): > 100 µM | TGI (NCI-H23 lung): > 100 µM | TGI (LXFL 529 NSCLC): > 100 µM | TGI (RPMI-8226 leukemia): > 100 µM | TGI (SF-539 CNS): > 100 µM | TGI (COLO 205 colon): > 100 µM | TGI (TK-10 renal): > 100 µM | TGI (UACC-62 melanoma): > 100 µM | TGI (SN12C renal): > 100 µM | TGI (SK-MEL-5 melanoma): > 100 µM | TGI (SR leukemia): > 100 µM | TGI (OVCAR-5 ovarian): > 100 µM | TGI (UO-31 renal): > 100 µM

CCOC(=O)C1(C(=O)OCC)C[C@H]2CON=C2[C@@H]1c1ccc(C(F)(F)F)cc1
TGI (KM12 colon): > 100 µM | TGI (HT29 colon): > 100 µM | TGI (OVCAR-4 ovarian): 61.4 µM | TGI (HOP-62 NSCLC): 64.9 µM | TGI (T-47D breast): 94.3 µM | TGI (SK-OV-3 ovarian): > 100 µM | TGI (UACC-257 melanoma): > 100 µM | TGI (SNB-75 CNS): > 100 µM | TGI (MOLT-4 leukemia): > 100 µM | TGI (ACHN renal): 34.4 µM | TGI (IGROV1 ovarian): 28.9 µM | TGI (OVCAR-8 ovarian): > 100 µM | TGI (K-562 leukemia): > 100 µM | TGI (U251 CNS): > 100 µM | TGI (HCT-15 colon): > 100 µM | TGI (HS 578T breast): > 100 µM | TGI (HCC-2998 colon): 87.4 µM | TGI (HL-60(TB) leukemia): > 100 µM | TGI (MDA-MB-231 breast): > 100 µM | TGI (DU-145 prostate): > 100 µM | TGI (NCI-H522 lung): 61 µM | TGI (SW-620 colon): > 100 µM | TGI (RXF 393 renal): > 100 µM | TGI (A498 renal): 99.3 µM | TGI (HCT-116 colon): > 100 µM | TGI (HOP-92 NSCLC): > 100 µM | TGI (SK-MEL-2 melanoma): > 100 µM | TGI (SF-295 CNS): > 100 µM | TGI (LOX IMVI melanoma): 32.4 µM | TGI (OVCAR-3 ovarian): > 100 µM | TGI (MDA-N): > 100 µM | TGI (A549 NSCLC): > 100 µM | TGI (MCF7 breast): > 100 µM | TGI (SF-268 CNS): > 100 µM | TGI (CCRF-CEM leukemia): 23.7 µM | TGI (M14 melanoma): > 100 µM | TGI (NCI-H226 lung): > 100 µM | TGI (CAKI-1 renal): > 100 µM | TGI (SK-MEL-28 melanoma): > 100 µM | TGI (SNB-19 CNS): > 100 µM | TGI (MALME-3M melanoma): > 100 µM | TGI (EKVX NSCLC): 96.6 µM | TGI (NCI-H460 lung): > 100 µM | TGI (786-0 renal): > 100 µM | TGI (NCI-H23 lung): > 100 µM | TGI (RPMI-8226 leukemia): > 100 µM | TGI (PC-3 prostate): > 100 µM | TGI (SF-539 CNS): > 100 µM | TGI (COLO 205 colon): > 100 µM | TGI (NCI/ADR-RES ovarian): > 100 µM | TGI (TK-10 renal): > 100 µM | TGI (UACC-62 melanoma): > 100 µM | TGI (SN12C renal): > 100 µM | TGI (SK-MEL-5 melanoma): > 100 µM | TGI (MDA-MB-435): > 100 µM | TGI (SR leukemia): > 100 µM | TGI (OVCAR-5 ovarian): > 100 µM | TGI (BT-549 breast): > 100 µM | TGI (UO-31 renal): 27.5 µM
